# Columns and labels:
# Assay type in all cases: in vivo
# [1] = test system: Oat, Wild (wild oat, Avena fatua); assay: Test A1 preemergence, Oat, Wild
# Outline: (§1)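 Test compounds were formulated in a non-phytotoxic solvent mixture containing a surfactant. For preemergence, seeds sown in a loam soil–sand blend received a directed soil spray. For postemergence, potted plants in the same soil, 2 to 10 cm tall at the one- to two-leaf stage, were sprayed.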
# [2] = test system: ragweed (common ragweed, Ambrosia artemisiifolia); assay: Test A1 postemergence, ragweed; conditions: for Ragweed plant response rating: postemergence; for Plant response rating, Ragweed: Postemergence
# Outline: (§2)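 Plants grown in pots of loam/sand mix; preemergence = soil-directed spray on seeded pots, postemergence = spray at 1–2 leaves, height 2–10 cm; test chemicals formulated in non-phytotoxic solvent with surfactant.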
# [3] = test system: goosegrass (Eleusine indica); assay: Test A1 preemergence, goosegrass
# Outline: as §1
# [4] = test system: goosegrass (Eleusine indica); assay: Test A1 postemergence, goosegrass; conditions: for Goosegrass plant response rating: postemergence; for Plant response rating, Goosegrass: Postemergence
# Outline: as §2
# [5] = 31 g ai/ha, 0 to 100 scale (0 no effect, 100 complete control)
# [6] = 125 g ai/ha, 0 to 100 scale, 0 no effect, 100 complete control
# [7] = 31 g ai/ha, 0 to 100 scale (0 no effect, 100 complete control), 10 days
# [8] = 125 g ai/ha, 0 to 100 scale (0 no effect, 100 complete control), 10 days
structure (smiles),measurement,setting,value
Cc1c(C(=O)N2C[C@@H](C)O[C@H](C)C2)cc(N(COC(=O)C(C)(C)C)S(=O)(=O)C(F)(F)F)c(C)c1C (relative stereo) [Compound 373],"Plant response rating, Oat, Wild",[1]; [5],0
same,"Plant response rating, Oat, Wild",[1]; [6],0
same,Ragweed plant response rating,[2]; [5],50
same,"Plant response rating, Ragweed","[2]; 125 g ai/ha, 0 to 100 scale",80
same,"Plant response rating, Goosegrass",[3]; [5],30
same,"Plant response rating, Goosegrass",[3]; [6],100
same,Goosegrass plant response rating,[4]; [5],0
same,"Plant response rating, Goosegrass","[4]; 125 g ai/ha, 0 to 100 scale",70
CCOC(=O)N(c1cc(C(=O)N2C[C@@H](C)O[C@H](C)C2)c(C)c(C)c1C)S(=O)(=O)C(F)(F)F (relative stereo) [Compound 374],"Plant response rating, Oat, Wild",[1]; [5],0
same,"Plant response rating, Oat, Wild",[1]; [6],30
same,Ragweed plant response rating,[2]; [5],60
same,"Plant response rating, Ragweed","[2]; 125 g ai/ha, 0 to 100 scale",80
same,"Plant response rating, Goosegrass",[3]; [5],60
same,"Plant response rating, Goosegrass",[3]; [6],100
same,Goosegrass plant response rating,[4]; [5],0
same,"Plant response rating, Goosegrass","[4]; 125 g ai/ha, 0 to 100 scale",90
Cc1c(C(=O)N2CCSCC2)cc(N(COC(=O)C(C)(C)C)S(=O)(=O)C(F)(F)F)c(C)c1C [Compound 285],"Plant response rating, Oat, Wild",[1]; [5],0
same,"Plant response rating, Oat, Wild",[1]; [6],20
same,"Plant response rating, Ragweed",[2]; [7],20
same,"Plant response rating, Ragweed","[2]; 125 g ai/ha, 0 to 100 scale",90
same,"Plant response rating, Goosegrass",[3]; [5],0
same,"Plant response rating, Goosegrass",[3]; [6],70
same,"Plant response rating, Goosegrass",[4]; [7],0
same,"Plant response rating, Goosegrass","[4]; 125 g ai/ha, 0 to 100 scale",50
CCOC(=O)N(c1cc(C(=O)N2CCSCC2)c(C)c(C)c1C)S(=O)(=O)C(F)(F)F [Compound 286],"Plant response rating, Oat, Wild",[1]; [5],0
same,"Plant response rating, Oat, Wild",[1]; [6],0
same,"Plant response rating, Ragweed",[2]; [7],0
same,"Plant response rating, Ragweed","[2]; 125 g ai/ha, 0 to 100 scale",40
same,"Plant response rating, Goosegrass",[3]; [5],30
same,"Plant response rating, Goosegrass",[3]; [6],90
same,"Plant response rating, Goosegrass",[4]; [7],0
same,"Plant response rating, Goosegrass","[4]; 125 g ai/ha, 0 to 100 scale",40
C#CCN(C)C(=O)c1cc(NS(=O)(=O)C(F)(F)F)c(C)c(C)c1C [Compound 368],"Plant response rating, Oat, Wild",[1]; [5],10
same,"Plant response rating, Oat, Wild",[1]; [6],20
same,Ragweed plant response rating,[2]; [5],50
same,"Plant response rating, Ragweed","[2]; 125 g ai/ha, 0 to 100 scale",80
same,"Plant response rating, Goosegrass",[3]; [5],70
same,"Plant response rating, Goosegrass",[3]; [6],90
same,Goosegrass plant response rating,[4]; [5],30
same,"Plant response rating, Goosegrass","[4]; 125 g ai/ha, 0 to 100 scale",90
Cc1c(C(=O)N2CCC(C)CC2)cc(N(COC(=O)C(C)(C)C)S(=O)(=O)C(F)(F)F)c(C)c1C [Compound 369],"Plant response rating, Oat, Wild",[1]; [5],0
same,"Plant response rating, Oat, Wild",[1]; [6],20
same,Ragweed plant response rating,[2]; [5],20
same,"Plant response rating, Ragweed","[2]; 125 g ai/ha, 0 to 100 scale",80
same,"Plant response rating, Goosegrass",[3]; [5],0
same,"Plant response rating, Goosegrass",[3]; [6],50
same,Goosegrass plant response rating,[4]; [5],0
same,"Plant response rating, Goosegrass","[4]; 125 g ai/ha, 0 to 100 scale",0
C#CCN(C)C(=O)c1cc(N(COC(=O)C(C)(C)C)S(=O)(=O)C(F)(F)F)c(C)c(C)c1C [Compound 371],"Plant response rating, Oat, Wild",[1]; [5],0
same,"Plant response rating, Oat, Wild",[1]; [6],0
same,Ragweed plant response rating,[2]; [5],40
same,"Plant response rating, Ragweed","[2]; 125 g ai/ha, 0 to 100 scale",70
same,"Plant response rating, Goosegrass",[3]; [5],0
same,"Plant response rating, Goosegrass",[3]; [6],90
same,Goosegrass plant response rating,[4]; [5],0
same,"Plant response rating, Goosegrass","[4]; 125 g ai/ha, 0 to 100 scale",80
Cc1cc(C)c(C2=NOC3OCCCC23)cc1NS(=O)(=O)C(F)(F)F (centres unmarked) [Compound 372],"Plant response rating, Oat, Wild",[1]; [5],0
same,"Plant response rating, Oat, Wild",[1]; [6],20
same,Ragweed plant response rating,[2]; [5],40
same,"Plant response rating, Ragweed","[2]; 125 g ai/ha, 0 to 100 scale",80
same,"Plant response rating, Goosegrass",[3]; [5],90
same,"Plant response rating, Goosegrass",[3]; [6],100
same,Goosegrass plant response rating,[4]; [5],0
same,"Plant response rating, Goosegrass","[4]; 125 g ai/ha, 0 to 100 scale",80
Cc1ccc(C2=NOC3CCCC23)cc1NS(=O)(=O)C(F)(F)F (centres unmarked) [Compound 377],"Plant response rating, Oat, Wild",[1]; [5],0
same,"Plant response rating, Oat, Wild",[1]; [6],0
same,Ragweed plant response rating,[2]; [5],20
same,"Plant response rating, Ragweed","[2]; 125 g ai/ha, 0 to 100 scale",30
same,"Plant response rating, Goosegrass",[3]; [5],0
same,"Plant response rating, Goosegrass",[3]; [6],20
same,Goosegrass plant response rating,[4]; [5],0
same,"Plant response rating, Goosegrass","[4]; 125 g ai/ha, 0 to 100 scale",0
CCc1cc(C)c(N(COC(=O)C(C)(C)C)S(=O)(=O)C(F)(F)F)cc1C1=NOC2CCCC12 (centres unmarked) [Compound 378],"Plant response rating, Oat, Wild",[1]; [5],10
same,"Plant response rating, Oat, Wild",[1]; [6],40
same,Ragweed plant response rating,[2]; [5],0
same,"Plant response rating, Ragweed","[2]; 125 g ai/ha, 0 to 100 scale",30
same,"Plant response rating, Goosegrass",[3]; [5],20
same,"Plant response rating, Goosegrass",[3]; [6],50
same,Goosegrass plant response rating,[4]; [5],0
same,"Plant response rating, Goosegrass","[4]; 125 g ai/ha, 0 to 100 scale",30
Cc1cc(C)c(C2=NOC(C(C)C)C2)cc1NS(=O)(=O)C(F)(F)F (centres unmarked) [Compound 381],"Plant response rating, Oat, Wild",[1]; [5],50
same,"Plant response rating, Oat, Wild",[1]; [6],80
same,Ragweed plant response rating,[2]; [5],0
same,"Plant response rating, Ragweed",[2]; [8],50
same,"Plant response rating, Goosegrass",[3]; [5],30
same,"Plant response rating, Goosegrass",[3]; [6],100
same,Goosegrass plant response rating,[4]; [5],0
same,"Plant response rating, Goosegrass",[4]; [8],50
Cc1c(C2=NOC3(CCCC3)C2)cc(N(COC(=O)C(C)(C)C)S(=O)(=O)C(F)(F)F)c(C)c1C [Compound 382],"Plant response rating, Oat, Wild",[1]; [5],20
same,"Plant response rating, Oat, Wild",[1]; [6],40
same,Ragweed plant response rating,[2]; [5],20
same,"Plant response rating, Ragweed",[2]; [8],40
same,"Plant response rating, Goosegrass",[3]; [5],0
same,"Plant response rating, Goosegrass",[3]; [6],30
same,Goosegrass plant response rating,[4]; [5],0
same,"Plant response rating, Goosegrass",[4]; [8],0
Cc1cc(C)c(N(COC(=O)C(C)(C)C)S(=O)(=O)C(F)(F)F)cc1C1=NOC(C(C)C)C1 (centres unmarked) [Compound 383],"Plant response rating, Oat, Wild",[1]; [5],0
same,"Plant response rating, Oat, Wild",[1]; [6],30
same,Ragweed plant response rating,[2]; [5],30
same,"Plant response rating, Ragweed",[2]; [8],40
same,"Plant response rating, Goosegrass",[3]; [5],0
same,"Plant response rating, Goosegrass",[3]; [6],80
same,Goosegrass plant response rating,[4]; [5],0
same,"Plant response rating, Goosegrass",[4]; [8],20
Cc1cc(C)c(N2CC3(CCCCC3)CC2=O)cc1NS(=O)(=O)C(F)(F)F [Compound 392],"Plant response rating, Oat, Wild",[1]; [5],20
same,"Plant response rating, Oat, Wild",[1]; [6],60
same,Ragweed plant response rating,[2]; [5],30
same,"Plant response rating, Ragweed",[2]; [8],70
same,"Plant response rating, Goosegrass",[3]; [5],40
same,"Plant response rating, Goosegrass",[3]; [6],100
same,Goosegrass plant response rating,[4]; [5],0
same,"Plant response rating, Goosegrass",[4]; [8],0
Cc1cc(Cl)c(NS(=O)(=O)C(F)(F)F)cc1N1CCC2(CCCCC2)C1=O [Compound 393],"Plant response rating, Oat, Wild",[1]; [5],10
same,"Plant response rating, Oat, Wild",[1]; [6],70
same,Ragweed plant response rating,[2]; [5],60
same,"Plant response rating, Ragweed",[2]; [8],70
same,"Plant response rating, Goosegrass",[3]; [5],100
same,"Plant response rating, Goosegrass",[3]; [6],100
same,Goosegrass plant response rating,[4]; [5],0
same,"Plant response rating, Goosegrass",[4]; [8],70
Cc1cc(Cl)c(NS(=O)(=O)C(F)(F)F)cc1N1CC2(CCCCC2)OC1=O [Compound 394],"Plant response rating, Oat, Wild",[1]; [5],20
same,"Plant response rating, Oat, Wild",[1]; [6],90
same,Ragweed plant response rating,[2]; [5],90
same,"Plant response rating, Ragweed",[2]; [8],90
same,"Plant response rating, Goosegrass",[3]; [5],80
same,"Plant response rating, Goosegrass",[3]; [6],100
same,Goosegrass plant response rating,[4]; [5],0
same,"Plant response rating, Goosegrass",[4]; [8],30
